{
  "source": "patent US20080109040A1",
  "about": "“METHOD OF TREATING ARRHYTHMIAS” (priority 2002, published 2008)",
  "key": {"[1]": {"target": "T1, L-type calcium current (ICa) (Canis lupus familiaris, UniProt A0A8I3QY31)", "T1 construct": "Single myocytes were obtained by enzymatic dissociation from a wedge-shaped section of the ventricular free wall; endogenous in cells; host or cells: isolated canine left ventricular myocytes", "T1 sequence (A0A8I3QY31 1-2188)": "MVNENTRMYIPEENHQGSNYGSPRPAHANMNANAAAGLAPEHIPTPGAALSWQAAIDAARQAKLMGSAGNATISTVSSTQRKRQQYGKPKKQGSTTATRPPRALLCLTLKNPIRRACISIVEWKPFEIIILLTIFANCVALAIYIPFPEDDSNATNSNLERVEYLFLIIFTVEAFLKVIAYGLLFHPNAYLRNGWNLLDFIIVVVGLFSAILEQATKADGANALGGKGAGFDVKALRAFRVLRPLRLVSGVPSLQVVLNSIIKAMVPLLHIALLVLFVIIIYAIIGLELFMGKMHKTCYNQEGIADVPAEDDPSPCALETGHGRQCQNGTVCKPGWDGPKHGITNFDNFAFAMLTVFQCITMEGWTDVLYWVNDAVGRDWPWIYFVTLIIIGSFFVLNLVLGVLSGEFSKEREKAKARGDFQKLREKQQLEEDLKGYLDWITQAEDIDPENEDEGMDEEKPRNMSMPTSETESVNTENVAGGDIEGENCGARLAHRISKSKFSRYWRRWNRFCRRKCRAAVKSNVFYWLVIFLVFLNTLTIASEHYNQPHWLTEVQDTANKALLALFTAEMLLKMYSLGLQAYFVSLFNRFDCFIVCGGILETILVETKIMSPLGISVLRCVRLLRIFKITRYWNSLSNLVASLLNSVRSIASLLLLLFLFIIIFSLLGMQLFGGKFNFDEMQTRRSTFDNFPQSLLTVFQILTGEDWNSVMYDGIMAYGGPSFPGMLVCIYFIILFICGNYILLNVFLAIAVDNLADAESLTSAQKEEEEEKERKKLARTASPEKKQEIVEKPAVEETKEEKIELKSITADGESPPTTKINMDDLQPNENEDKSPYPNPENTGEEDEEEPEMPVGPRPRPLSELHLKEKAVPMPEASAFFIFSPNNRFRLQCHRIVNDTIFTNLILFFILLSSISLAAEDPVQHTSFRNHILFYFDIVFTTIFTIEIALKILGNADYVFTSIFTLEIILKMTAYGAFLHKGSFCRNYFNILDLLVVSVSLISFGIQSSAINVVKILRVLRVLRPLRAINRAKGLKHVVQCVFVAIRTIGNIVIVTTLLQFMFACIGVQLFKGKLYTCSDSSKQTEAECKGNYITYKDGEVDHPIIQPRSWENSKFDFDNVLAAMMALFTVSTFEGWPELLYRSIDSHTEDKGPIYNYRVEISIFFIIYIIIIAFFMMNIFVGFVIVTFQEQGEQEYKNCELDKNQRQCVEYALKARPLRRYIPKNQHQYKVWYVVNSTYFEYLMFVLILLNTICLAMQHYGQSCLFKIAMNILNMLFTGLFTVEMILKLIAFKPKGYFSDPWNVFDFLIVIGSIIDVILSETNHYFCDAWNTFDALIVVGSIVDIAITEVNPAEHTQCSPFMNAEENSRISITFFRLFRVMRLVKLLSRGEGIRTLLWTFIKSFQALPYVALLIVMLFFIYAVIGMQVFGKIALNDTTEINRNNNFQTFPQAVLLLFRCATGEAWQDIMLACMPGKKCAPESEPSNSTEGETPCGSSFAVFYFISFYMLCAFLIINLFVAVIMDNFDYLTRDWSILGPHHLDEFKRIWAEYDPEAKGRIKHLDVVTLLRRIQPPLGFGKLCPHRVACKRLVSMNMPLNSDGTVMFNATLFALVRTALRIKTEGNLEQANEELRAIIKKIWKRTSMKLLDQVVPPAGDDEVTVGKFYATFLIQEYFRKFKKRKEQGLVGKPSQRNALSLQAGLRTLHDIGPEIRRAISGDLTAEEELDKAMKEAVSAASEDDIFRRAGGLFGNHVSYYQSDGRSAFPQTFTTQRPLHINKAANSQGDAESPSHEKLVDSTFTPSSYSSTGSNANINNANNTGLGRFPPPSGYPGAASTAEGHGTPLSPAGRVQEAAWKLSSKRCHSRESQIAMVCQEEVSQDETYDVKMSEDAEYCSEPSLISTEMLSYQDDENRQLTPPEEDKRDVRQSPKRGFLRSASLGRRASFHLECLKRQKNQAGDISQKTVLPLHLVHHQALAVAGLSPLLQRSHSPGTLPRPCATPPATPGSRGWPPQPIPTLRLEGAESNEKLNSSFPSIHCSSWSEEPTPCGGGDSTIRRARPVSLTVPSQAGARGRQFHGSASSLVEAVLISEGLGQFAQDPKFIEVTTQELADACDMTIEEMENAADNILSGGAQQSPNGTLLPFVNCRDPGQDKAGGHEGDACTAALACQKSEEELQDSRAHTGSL", "assay": "L-type calcium current voltage clamp in isolated canine left ventricular myocytes", "type": "cell-based", "conditions": "read-out: Concentration at which ranolazine blocks the calcium channel"}, "[2]": {"test_system": "guinea pig ventricular myocytes", "assay": "Action potential duration, EADs and triggered activity in guinea pig ventricular myocytes", "conditions": "for Reduction of ATX-II-induced prolongation of APD50: ATX-II 10-20 nmol/L; for Attenuation of ATXII-induced prolongation of APD50: ATXII 10-40 nmol/L", "experimental": "Single ventricular myocytes were isolated from the hearts of adult, male guinea pigs (Harlan). In brief, the hearts were perfused with warm (35° C.) and oxygenated solutions in the following order: 1) Tyrode solution containing (in mmol/L) 140 NaCl, 4.6 KCl, 1.8 CaCl2, 1.1 MgSO4, 10 glucose and 5 HEPES, pH 7.4, for 5 minutes; 2) Ca^2+-free solution containing (in mmol/L) 100 NaCl, 30 KCl, 2 MgSO4, 10 glucose, 5 HEPES, 20 taurine, and 5 pyruvate, pH 7.4, for 5 minutes; and 3) Ca^2+-free solution containing sollagenase (120 units/ml) and albumin (2 mg/ml), for 20 minutes. At the end of the perfusion, the ventricles were removed, minced, and gently shaken for 10 minutes in solution #3. Isolated cells were harvested from the cell suspension.\nMyocytes were placed into a recording chamber and superfused with Tyrode solution at 35° C. Drugs were applied via the superfusate. Action potentials were measured using glass microelectrodes filled with a solution containing (in mmol/L) 120 K-aspartate, 20 KCl, 1 MgCl2, 4 Na2ATP, 0.1 Na3GTP, 10 glucose, 1 EGTA and 10 HEPES (pH 7.2). Microelectrode resistance was 1-3 MΩ. An Axopatch-200 amplifier, a DigiData-1200A interface and pCLAMP6 software were used to perform electrophysiological measurements. Action potentials were induced by 5-ms depolarizing pulses applied at various frequencies as indicated. The duration of action potential was measured at 50% (APD50) and 90% (APD90) repolarization.\n1) Ventricular myocytes were electrically stimulated at a frequency of 0.5, 1 or 2 Hz. Each myocyte was treated with 3, 10 and 30 μmol/L ranolazine. The effect of ranolazine on action potential duration at each pacing frequency was determined from 4 myocytes.\n2) Action potentials were elicited at a frequency of 0.25 Hz, and the effect of ranolazine (10 μmol/L) on action potential duration was examined in the presence of 5 μmol/L quinidine. Experiments were performed on 4 myocytes.\nFollowing the procedures and protocols of Example 21, guinea pig ventricular myocytes were electrically stimulated in the presence of ranolazine either alone or in the presence of ATX II [a sea anemone toxin known to mimic LQT3 syndrome by slowing Na^+-channel inactivation from the open state and thereby increasing the peak and late Na^+ current (INa) of cardiomyocytes]. ATXII is known to induce early afterdepolarizations (EADs) and triggered activity and ventricular tachycardia.\nAction potentials were recorded using the whole-cell patch-electrode technique. Ventricular monophasic action potentials and electrograms were recorded from isolated hearts.\nThe ventricular APD of guinea pigs isolated myocytes and hearts was measured, respectively, at 50% (APD50) and 90% (MAPD90) repolarization."}, "[3]": {"test_system": "anesthetized dog", "assay": "QT prolongation and arrhythmia induction in anesthetized dog with AV block and phenylephrine challenge", "experimental": "Dogs were pretreated with Atravet (0.07 mg/kg sc) and then 15 minutes later anesthetized with ketamine (5.3 mg/kg iv) and valium (0.25 mg/kg iv) followed by isoflurane (1-2%), intubated and subjected to mechanical ventilation. They were then subjected to AV block with radiofrequency ablation. A median sternotomy was performed and catheters were inserted into a femoral artery for blood pressure (BP) recording and into both femoral veins for infusion of test drugs. Bipolar electrodes were inserted into both ventricles for programmed stimulation determination of refractory periods (extrastimulus technique), as well as for evaluation of QT interval and QRS duration at various controlled basic cycle lengths (BCLs). TdP was induced by challenges of phenylephrine, which were given as bolus intravenous doses of 10, 20, 30, 40 and 50 μg/kg. After each dose, the ECG was monitored continuously to detect arrhythmias. […] Test drug effects were evaluated as per protocols below.\nData are presented as the mean ±S.E.M. Statistical comparisons were made with Student's t test. A 2-tailed probability<0.05 was taken to indicate statistical significance. In data tables, * denotes P<0.05, **P<0.01.\nGroup 2 (6 dogs): Five dogs received ranolazine as a 0.5 mg/kg iv load followed by a first, a second and a third continuous iv infusion of 1.0, 3.0 and 15 mg/kg/hr, respectively. One dog received ranolazine as a 1.5 mg/kg iv load followed by infusions of 15 and 30 mg/kg/hr. […] The phenylephrine challenges were then given, with all doses given at each drug infusion rate, and any arrhythmias monitor."}, "[4]": {"conditions": "ranolazine 10 μmol/L, ATX-II plus either E-4031 or 293B"}, "[5]": {"conditions": "ranolazine 0.5 mg/kg iv load + 1.0 mg/kg/hr, BCL 300"}, "[6]": {"conditions": "ranolazine 0.5 mg/kg iv load + 1.0 mg/kg/hr, BCL 400"}, "[7]": {"conditions": "ranolazine 0.5 mg/kg iv load + 1.0 mg/kg/hr, BCL 600"}, "[8]": {"conditions": "ranolazine 3.0 mg/kg/hr, BCL 300"}, "[9]": {"conditions": "ranolazine 3.0 mg/kg/hr, BCL 400"}, "[10]": {"conditions": "ranolazine 3.0 mg/kg/hr, BCL 600"}, "[11]": {"conditions": "ranolazine 3.0 mg/kg/hr, BCL 1000"}, "[12]": {"conditions": "ranolazine 15 mg/kg/hr, BCL 400"}, "[13]": {"conditions": "ranolazine 15 mg/kg/hr, BCL 600"}, "[14]": {"conditions": "ranolazine 15 mg/kg/hr, BCL 1000"}},
  "note": "pIC50: −log10 of the molar value. Entries after “also recorded” stand apart in the source; their conditions may differ.",
  "data": [
    {"compound": "COc1ccccc1OCC(O)CN1CCN(CC(=O)Nc2c(C)cccc2C)CC1", "note": "(racemic) [ranolazine, N-(2,6-dimethylphenyl)-4-[2-hydroxy-3-(2-methoxyphenoxy)propyl]-1-piperazineacetamide]", "values": [
      {"measurement": "pIC50", "setting": "[1]", "result": 3.53},
      {"measurement": "Reduction of ATX-II-induced prolongation of APD50", "setting": "[2]; ranolazine 0.1 μmol/L", "result": "29±1", "unit": "%"},
      {"measurement": "Reduction of ATX-II-induced prolongation of APD50", "setting": "[2]; ranolazine 0.3 μmol/L", "result": "47±1", "unit": "%"},
      {"measurement": "Reduction of ATX-II-induced prolongation of APD50", "setting": "[2]; ranolazine 1 μmol/L", "result": "63±3", "unit": "%"},
      {"measurement": "Attenuation of ATXII-induced prolongation of APD50", "setting": "[2]; ranolazine 1 μmol/L", "result": "60±4", "unit": "%"},
      {"measurement": "Reduction of ATX-II-induced prolongation of APD50", "setting": "[2]; ranolazine 3 μmol/L", "result": "79±1", "unit": "%"},
      {"measurement": "Attenuation of ATXII-induced prolongation of APD50", "setting": "[2]; ranolazine 3 μmol/L", "result": "80±2", "unit": "%"},
      {"measurement": "Reduction of ATX-II-induced prolongation of APD50", "setting": "[2]; ranolazine 10 μmol/L", "result": "86±2", "unit": "%"},
      {"measurement": "Effect on EADs", "setting": "[2]; [4]", "result": "completely abolished the EADs"},
      {"measurement": "Reversal of the prolongation of APD50", "setting": "[2]; [4]", "result": "about 70%"},
      {"measurement": "Attenuation of ATXII-induced prolongation of APD50", "setting": "[2]; ranolazine 10 μmol/L", "result": "86±2", "unit": "%"},
      {"measurement": "Suppression of quinidine-induced EADs and triggered activity", "setting": "[2]; ranolazine 10 μmol/L, quinidine 2.5 μmol/L", "result": "effective in suppressing EADs; also recorded: effective in suppressing triggered activity; also recorded: suppressed EADs and TA"},
      {"measurement": "Effect on quinidine-induced action potential prolongation", "setting": "[2]; ranolazine 10 μmol/L, quinidine 5 μmol/L, 0.25 Hz", "result": "attenuated the effect of quinidine"},
      {"measurement": "Reduction of ATX-II-induced prolongation of APD50", "setting": "[2]; ranolazine 30 μmol/L", "result": "99±1", "unit": "%"},
      {"measurement": "Attenuation of ATXII-induced prolongation of APD50", "setting": "[2]; ranolazine 30 μmol/L", "result": "99±1", "unit": "%"},
      {"measurement": "Effect on APD50 and APD90", "setting": "[2]; ranolazine 3, 10, 30 μmol/L, 0.5, 1, 2 Hz", "result": "moderate and concentration-dependent shortening"},
      {"measurement": "Induction of torsades de pointes and/or ventricular fibrillation", "setting": "[3]; dog, in vivo", "result": "unable to induce any"},
      {"measurement": "Maximum increase of QT interval", "setting": "[3]; dog, in vivo, 3 mg/kg, 30 min", "result": "about 10%"},
      {"measurement": "Arrhythmia occurrence", "setting": "[3]; dog, in vivo, 30 min", "result": "VT 13 beats,"},
      {"measurement": "Mean ERP-LV + SE", "setting": "[3]; [5]", "result": "185.00 ± 8.1", "unit": "ms"},
      {"measurement": "Mean ERP-RV + SE", "setting": "[3]; [5]", "result": "182.84 ± 6.67", "unit": "ms"},
      {"measurement": "Mean ERP-LV + SE", "setting": "[3]; [6]", "result": "204.38 ± 11.01", "unit": "ms"},
      {"measurement": "Mean ERP-RV + SE", "setting": "[3]; [6]", "result": "201.50 ± 6.45", "unit": "ms"},
      {"measurement": "Mean ERP-LV + SE", "setting": "[3]; [7]", "result": "233.13 ± 12.43", "unit": "ms"},
      {"measurement": "Mean ERP-RV + SE", "setting": "[3]; [7]", "result": "227.50 ± 8.87", "unit": "ms"},
      {"measurement": "Mean ERP-LV + SE", "setting": "[3]; ranolazine 0.5 mg/kg iv load + 1.0 mg/kg/hr, BCL 1000", "result": "259.38 ± 18.18", "unit": "ms"},
      {"measurement": "Outcome of the high-dose dog", "setting": "[3]; ranolazine 1.5 mg/kg iv load, 15 then 30 mg/kg/hr infusion", "result": "died of pump failure"},
      {"measurement": "Mean ERP-LV + SE", "setting": "[3]; [8]", "result": "189.38 ± 8.32", "unit": "ms"},
      {"measurement": "Mean ERP-RV + SE", "setting": "[3]; [8]", "result": "181.00 ± 2.32", "unit": "ms"},
      {"measurement": "Mean ERP-LV + SE", "setting": "[3]; [9]", "result": "211.45 ± 9.2", "unit": "ms"},
      {"measurement": "Mean ERP-RV + SE", "setting": "[3]; [9]", "result": "199.66 ± 3.75", "unit": "ms"},
      {"measurement": "Mean ERP-LV + SE", "setting": "[3]; [10]", "result": "238.13 ± 13.25", "unit": "ms"},
      {"measurement": "Mean ERP-RV + SE", "setting": "[3]; [10]", "result": "224.50 ± 4.83", "unit": "ms"},
      {"measurement": "Mean ERP-LV + SE", "setting": "[3]; [11]", "result": "265.43 ± 19.42", "unit": "ms"},
      {"measurement": "Mean ERP-RV + SE", "setting": "[3]; [11]", "result": "249.50 ± 6.19", "unit": "ms"},
      {"measurement": "Mean ERP-RV + SE", "setting": "[3]; ranolazine 15 mg/kg/hr, BCL 300", "result": "185.00 ± 5.76", "unit": "ms"},
      {"measurement": "Mean ERP-LV + SE", "setting": "[3]; [12]", "result": "215.00 ± 10.05", "unit": "ms"},
      {"measurement": "Mean ERP-RV + SE", "setting": "[3]; [12]", "result": "206.50 ± 5.79", "unit": "ms"},
      {"measurement": "Mean ERP-LV + SE", "setting": "[3]; [13]", "result": "237.50 ± 14.11", "unit": "ms"},
      {"measurement": "Mean ERP-RV + SE", "setting": "[3]; [13]", "result": "229.50 ± 6.19", "unit": "ms"},
      {"measurement": "Mean ERP-LV + SE", "setting": "[3]; [14]", "result": "260.43 ± 19.32", "unit": "ms"},
      {"measurement": "Mean ERP-RV + SE", "setting": "[3]; [14]", "result": "253.16 ± 7.77", "unit": "ms"},
      {"measurement": "Mean increase of ERP", "setting": "[3]; ranolazine infusions", "result": "≤ 10", "unit": "%"}
    ]}
  ]
}
